Laboratory results taken from the NIST ThermoML archive (doi:10.1021/je034087q).

Assay: xn = mol fraction of the nth substance listed

CCCCC [pentane] + O=C=O
Details | mass density [kg/m3]
312.35 K, 7770 kPa, Fluid (supercritical or subcritical phases), x2 = 0.96 | 475
312.35 K, 7780 kPa, Fluid (supercritical or subcritical phases), x2 = 0.96 | 479
312.35 K, 7790 kPa, Fluid (supercritical or subcritical phases), x2 = 0.96 | 482
312.35 K, 7800 kPa, Fluid (supercritical or subcritical phases), x2 = 0.96 | 488
312.35 K, 7810 kPa, Fluid (supercritical or subcritical phases), x2 = 0.96 | 491
312.35 K, 7840 kPa, Fluid (supercritical or subcritical phases), x2 = 0.96 | 501
312.35 K, 7870 kPa, Fluid (supercritical or subcritical phases), x2 = 0.96 | 511
312.35 K, 7890 kPa, Fluid (supercritical or subcritical phases), x2 = 0.96 | 522
312.35 K, 7920 kPa, Fluid (supercritical or subcritical phases), x2 = 0.96 | 532
312.35 K, 7970 kPa, Fluid (supercritical or subcritical phases), x2 = 0.96 | 544
312.35 K, 8010 kPa, Fluid (supercritical or subcritical phases), x2 = 0.96 | 556
312.35 K, 8070 kPa, Fluid (supercritical or subcritical phases), x2 = 0.96 | 568
312.35 K, 8150 kPa, Fluid (supercritical or subcritical phases), x2 = 0.96 | 581
312.35 K, 8230 kPa, Fluid (supercritical or subcritical phases), x2 = 0.96 | 594
312.35 K, 8360 kPa, Fluid (supercritical or subcritical phases), x2 = 0.96 | 608
312.35 K, 8530 kPa, Fluid (supercritical or subcritical phases), x2 = 0.96 | 624
312.35 K, 8740 kPa, Fluid (supercritical or subcritical phases), x2 = 0.96 | 639
312.35 K, 9020 kPa, Fluid (supercritical or subcritical phases), x2 = 0.96 | 656
312.35 K, 9400 kPa, Fluid (supercritical or subcritical phases), x2 = 0.96 | 674
312.35 K, 9600 kPa, Fluid (supercritical or subcritical phases), x2 = 0.96 | 686
315.55 K, 7940 kPa, Fluid (supercritical or subcritical phases), x2 = 0.947 | 466
315.55 K, 7960 kPa, Fluid (supercritical or subcritical phases), x2 = 0.947 | 472
315.55 K, 7970 kPa, Fluid (supercritical or subcritical phases), x2 = 0.947 | 475
315.55 K, 8010 kPa, Fluid (supercritical or subcritical phases), x2 = 0.947 | 484
315.55 K, 8040 kPa, Fluid (supercritical or subcritical phases), x2 = 0.947 | 492
315.55 K, 8070 kPa, Fluid (supercritical or subcritical phases), x2 = 0.947 | 502
315.55 K, 8110 kPa, Fluid (supercritical or subcritical phases), x2 = 0.947 | 512
315.55 K, 8150 kPa, Fluid (supercritical or subcritical phases), x2 = 0.947 | 522
315.55 K, 8200 kPa, Fluid (supercritical or subcritical phases), x2 = 0.947 | 532
315.55 K, 8250 kPa, Fluid (supercritical or subcritical phases), x2 = 0.947 | 543
315.55 K, 8320 kPa, Fluid (supercritical or subcritical phases), x2 = 0.947 | 555
315.55 K, 8390 kPa, Fluid (supercritical or subcritical phases), x2 = 0.947 | 566
315.55 K, 8490 kPa, Fluid (supercritical or subcritical phases), x2 = 0.947 | 578
315.55 K, 8610 kPa, Fluid (supercritical or subcritical phases), x2 = 0.947 | 592
315.55 K, 8760 kPa, Fluid (supercritical or subcritical phases), x2 = 0.947 | 605
315.55 K, 8970 kPa, Fluid (supercritical or subcritical phases), x2 = 0.947 | 620
315.55 K, 9200 kPa, Fluid (supercritical or subcritical phases), x2 = 0.947 | 635
315.55 K, 9520 kPa, Fluid (supercritical or subcritical phases), x2 = 0.947 | 650
315.55 K, 9940 kPa, Fluid (supercritical or subcritical phases), x2 = 0.947 | 666
315.55 K, 10200 kPa, Fluid (supercritical or subcritical phases), x2 = 0.947 | 676
315.55 K, 10490 kPa, Fluid (supercritical or subcritical phases), x2 = 0.947 | 684
315.55 K, 10840 kPa, Fluid (supercritical or subcritical phases), x2 = 0.947 | 695
315.55 K, 11480 kPa, Fluid (supercritical or subcritical phases), x2 = 0.947 | 711
318.15 K, 7980 kPa, Fluid (supercritical or subcritical phases), x2 = 0.901 | 590
318.15 K, 8070 kPa, Fluid (supercritical or subcritical phases), x2 = 0.901 | 594
318.15 K, 8170 kPa, Fluid (supercritical or subcritical phases), x2 = 0.901 | 600
318.15 K, 8280 kPa, Fluid (supercritical or subcritical phases), x2 = 0.901 | 606
318.15 K, 8380 kPa, Fluid (supercritical or subcritical phases), x2 = 0.901 | 613
318.15 K, 8520 kPa, Fluid (supercritical or subcritical phases), x2 = 0.901 | 619
318.15 K, 8660 kPa, Fluid (supercritical or subcritical phases), x2 = 0.901 | 625
318.15 K, 8810 kPa, Fluid (supercritical or subcritical phases), x2 = 0.901 | 631
318.15 K, 8980 kPa, Fluid (supercritical or subcritical phases), x2 = 0.901 | 638
318.15 K, 9180 kPa, Fluid (supercritical or subcritical phases), x2 = 0.901 | 644
318.15 K, 9400 kPa, Fluid (supercritical or subcritical phases), x2 = 0.901 | 651
318.15 K, 9440 kPa, Fluid (supercritical or subcritical phases), x2 = 0.901 | 654
318.15 K, 9550 kPa, Fluid (supercritical or subcritical phases), x2 = 0.901 | 656
318.15 K, 9720 kPa, Fluid (supercritical or subcritical phases), x2 = 0.901 | 661
318.15 K, 9910 kPa, Fluid (supercritical or subcritical phases), x2 = 0.901 | 666
318.15 K, 10010 kPa, Fluid (supercritical or subcritical phases), x2 = 0.901 | 669
318.15 K, 10130 kPa, Fluid (supercritical or subcritical phases), x2 = 0.901 | 670
318.15 K, 10260 kPa, Fluid (supercritical or subcritical phases), x2 = 0.901 | 674
318.15 K, 10370 kPa, Fluid (supercritical or subcritical phases), x2 = 0.901 | 677
318.15 K, 10560 kPa, Fluid (supercritical or subcritical phases), x2 = 0.901 | 680
318.15 K, 10680 kPa, Fluid (supercritical or subcritical phases), x2 = 0.901 | 683
318.15 K, 10880 kPa, Fluid (supercritical or subcritical phases), x2 = 0.901 | 685
318.15 K, 11070 kPa, Fluid (supercritical or subcritical phases), x2 = 0.901 | 689
318.15 K, 11290 kPa, Fluid (supercritical or subcritical phases), x2 = 0.901 | 694
318.15 K, 11490 kPa, Fluid (supercritical or subcritical phases), x2 = 0.901 | 697
318.15 K, 11650 kPa, Fluid (supercritical or subcritical phases), x2 = 0.901 | 698
318.15 K, 11890 kPa, Fluid (supercritical or subcritical phases), x2 = 0.901 | 702
318.15 K, 12110 kPa, Fluid (supercritical or subcritical phases), x2 = 0.901 | 705
318.15 K, 12380 kPa, Fluid (supercritical or subcritical phases), x2 = 0.901 | 710
318.15 K, 12600 kPa, Fluid (supercritical or subcritical phases), x2 = 0.901 | 713
318.15 K, 12940 kPa, Fluid (supercritical or subcritical phases), x2 = 0.901 | 716
318.15 K, 13280 kPa, Fluid (supercritical or subcritical phases), x2 = 0.901 | 722
318.15 K, 13690 kPa, Fluid (supercritical or subcritical phases), x2 = 0.901 | 727
318.15 K, 13870 kPa, Fluid (supercritical or subcritical phases), x2 = 0.901 | 728
318.15 K, 14050 kPa, Fluid (supercritical or subcritical phases), x2 = 0.901 | 732
318.15 K, 14410 kPa, Fluid (supercritical or subcritical phases), x2 = 0.901 | 734
318.15 K, 14620 kPa, Fluid (supercritical or subcritical phases), x2 = 0.901 | 736
318.15 K, 14900 kPa, Fluid (supercritical or subcritical phases), x2 = 0.901 | 738
318.15 K, Liquid, Other PVT measurement, x2 = 0.901 | 585
323.15 K, 2500 kPa, Fluid (supercritical or subcritical phases), x2 = 0.214 | 607
